Measurements reported in patent US4681754A, “Counteracting cyclosporin organ toxicity” (Sandoz Ltd., priority 1984, dated 1987).

Columns and labels:
Format in all cases: in vivo
rats (F344×WF)FI = assay: Test 1: immuno-suppressive activity, local graft-versus-host (GVH) reaction in the rat; details: Cyclosporine alone p.o. on 4 successive days
Procedure: The test is carried out employing rats (F344×WF)FI sensibilized by injection into the hind-foot of spleen cells taken from .female. Wistar-Furth (WF) rats. The test animals are divided into groups of 8. […] GVH reaction is determined by measurement of increase in lymphe node weight compared with untreated controls.

OFA rats = assay: Test 3: anti-inflammatory activity, adjuvant arthritis in the rat; details: Cyclosporine alone p.o./day for 14 days
Procedure: For this test adjuvant arthritis is induced in accordance with the method described by Pearson and Wood, "Arthr. Rheum." 2, 440 (1959). OFA .female. rats are employed as test animals. […] Administration is effected in all cases on successive days for 14 days starting on day 1 after antigen administration and inflammatory reaction is determined on day 19 after antigen administration.

OFI mice = assay: Test 2: immuno-suppressive activity, anti-body producing cell development in the mouse (PFC test); details: Cyclosporine alone p.o. on 3 successive days
Procedure: The test is carried out employing .female. OFI mice sensibilized by i.v. administration of ca. 1×10^8 sheep erythrocytes (SRBC). The test animals are divided into groups of 5.
The spleens are removed on day 4 and a cell suspension prepared and incubated with fresh SRBC antigen on soft agar. After addition of compliment, which, together with anti-body secreted from the sensibilized cells, dissolves SRBC in the vicinity of secreting cells, plaque development is counted and compared with results obtained employing untreated control mice.

## Cyclosporine
Rats (F344×WF)FI
  ED50 for Cyclosporine, GVH reaction (increase in lymph node weight): 27 mg/kg
OFA rats
  ED50 for Cyclosporine, adjuvant arthritis (inflammatory reaction day 19): 4.2 mg/kg
OFI mice
  ED50 for Cyclosporine, PFC test (plaque development): 40 mg/kg
